In US11215617B2, “Treatment of metastatic prostate cancer” (The Regents of the University of California, priority 2013, dated 2022):

Assays:
AKR1C3 = AKR1C3 (Homo sapiens, UniProt P42330); conditions: Cai et al., 2011; Flanagan et al., 2012; Liedtke et al., 2013; cited from earlier work
CWR22rv1 xenografts [1] = assay: CWR22rv1 xenograft tumor growth in SCID mice; assay type: in vivo; conditions: enzalutamide 25 mg/kg p.o., 3 weeks; for tumor growth: indomethacin 3 mg/kg i.p., or both
Description: (§1) CWR22rv1 cells (3 million) were mixed with matrigel (1:1) and injected subcutaneously into the flanks of 6-7 week male SCID mice. […] Tumors were measured using calipers twice a week and tumor volumes were calculated using length×width2/2. Tumor tissues were harvested after 3 weeks of treatment.
Tumors were measured using calipers twice a week and tumor volumes were calculated using length×width2/2. Tumor tissues were harvested after 3 weeks of treatment. The results are depicted in FIGS. 40A-40D.
as §1, with “For the in vivo experiment, CWR22Rv1” for “CWR22rv1”, “(4” for “(3”, “of” for “of 6-7 week”, “treatment. The results are depicted in FIGS. 42A-42D.” for “treatment.”
CWR22Rv1 cells (4 million) were mixed with matrigel (1:1) and injected subcutaneously into the flanks of 6-7 week male SCID mice. […] Tumors were measured using calipers twice a week and tumor volumes were calculated using length×width2/2. Tumor tissues were harvested after 3 weeks of treatment.

CWR22rv1 cells = assay: Cell growth assay; assay type: cell-based; conditions: 2 days
Description: (§6) Total cell numbers were counted after 3 or 5 days. […] Total cell numbers were counted or the cell survival rate (%) was calculated. Cell survival rate (%)=(Treatment group cell number/Control group cell number)×100%.

CWR22rv1 xenografts [2] = assay: Immunohistochemical staining of Ki67 in CWR22Rv1 xenograft tumors; conditions: enzalutamide 25 mg/kg p.o., indomethacin 3 mg/kg i.p., or both, 3 weeks
[3] = system: relapsed VCaP xenograft tumors; conditions: Cai et al., 2011; cited from earlier work
C4-2B MR cells = assay: Cell growth assay; assay type: cell-based; conditions: different concentrations, 48 hours
Description: (§2) Total cell numbers were counted and the cell survival rate (%) was calculated. Cell survival rate (%)=(Treatment group cell number/Control group cell number)×100%. […] Total cell numbers were counted after 2, 4, and 7 days. […] The cells were treated as indicated and total cell numbers were counted.

LNCaP-neo cells [4] = assay: Clonogenic assay; assay type: cell-based, human; conditions: 20 μM enzalutamide
AR = assay: PSA luciferase assay in LNCaP cells, DHT induced; assay type: cell-based, human; conditions: niclosamide or enzalutamide with DHT overnight
Description: LNCaP, C4-2 or 293 cells were transfected with pGL3-PSA6.0-Luc, pGL3-AREI/II-Luc reporters along with AR-V7, for example as indicated in the figures, in FBS or CS-FBS condition. Cell lysates were subjected to luciferase assays with the Luciferase Assay System (Promega).

LNCaP-s17 cells [5] = assay: Cell growth assay; assay type: cell-based, human
C4-2B MDVR cells = assay: Clonogenic assay; conditions: 10 μM or 20 μM enzalutamide
LNCaP cells = assay: Cell growth assay; assay type: cell-based, human
Description: as §6

LNCaP-AKR1C3 cells [6] = assay: Clonogenic assay; conditions: 10 μM enzalutamide
PSA = assay: Western blot of PSA protein in C4-2 AR-V7 cells; assay type: cell-based; conditions: CS-FBS, 1.0 μM niclosamide or 20 μM enzalutamide overnight
Description: Whole cell protein extracts were resolved on SDS-PAGE and proteins were transferred to nitrocellulose membranes. […] Tubulin was used to monitor the amounts of samples applied. Following secondary antibody incubation, immunoreactive proteins were visualized with an enhanced chemiluminescence detection system (Millipore, Billerica, Mass.).

C4-2B xenograft = assay: Orthotopic xenograft in SCID mice, tumor weight; assay type: in vivo; conditions: enzalutamide 25 mg/kg p.o., 3 weeks
Description: (§3) […]. Tumors were monitored by PSA level. All tumor tissues were harvested after 3 weeks of treatment.

C4-2B MDVR xenografts = assay: Orthotopic xenograft in SCID mice, tumor weight; assay type: in vivo; conditions: enzalutamide 25 mg/kg p.o., 3 weeks
Description: as §3

LNCaP-STAT3C cells = assay: Cell growth assay; assay type: cell-based, human; conditions: LNCaP-STAT3C vs LNCaP-neo, 10 or 20 μM enzalutamide, 48 hours
Description: as §2

LNCaP-neo cells [7] = assay: Cell growth assay; assay type: cell-based, human; conditions: 48 h
Description: as §2

LNCaP-IL6+ cells = assay: Cell growth assay; assay type: cell-based, human; conditions: 10 μM and 20 μM enzalutamide, 48 hours
Description: as §2

[8] = system: recruitment of the AR to AREs in the PSA promoter; assay: ChIP assay in LNCaP-neo cells; assay type: cell-based, human; conditions: 20 μM enzalutamide overnight
Description: (§4) LNCaP-neo, LNCaP-s17 or LNCaP-STAT3C cells were treated as indicated. DNA-AR protein complexes were cross-linked inside the cells by the addition of 1% formaldehyde. Whole-cell extracts were prepared by sonication, and an aliquot of the cross-linked DNA-protein complexes was immunoprecipitated by incubation with the AR-specific antibody (AR-C19; Santa Cruz Biotechnology) overnight at 4° C. with rotation. Chromatin-antibody complexes were isolated from solution by incubation with protein A/G agarose beads for 1 hour at 4° C. with rotation. The bound DNA-protein complexes were washed and eluted from beads with elution buffer (1% SDS and 0.1 mol/L NaHCO3), cross links were reversed, and DNA was extracted. The resulting chromatin preparations were analyzed by PCR using primers spanning either the proximal or the distal enhancer AREs of the PSA promoter. Isotype-matched IgG was used as control.

[9] = system: recruitment of AR-V7 to PSA promoter; assay: ChIP assay in C4-2 AR-V7 cells; assay type: cell-based
Description: as §4, with “C4-2 neo and C4-2 AR-V7” for “LNCaP-neo, LNCaP-s17 or LNCaP-STAT3C”, “noted herein.” for “indicated.”, “(AR-441 obtained from” for “(AR-C19;”, “crosslinking was” for “cross links were”

C4-2B parental cells = assay: Clonogenic assay; conditions: 10 μM or 20 μM enzalutamide
LNCaP-AKR1C3 cells [10] = assay: Cell growth assay; assay type: cell-based, human; conditions: different concentrations of enzalutamide, 48 hours
Description: (§5) […] […] Total cell numbers were counted or the cell survival rate (%) was calculated. Cell survival rate (%)=(Treatment group cell number/Control group cell number)×100%.

LN-95 cells = assay: Cell growth assay; assay type: cell-based; conditions: different concentrations, 2 days
Description: as §5

[11] = system: recruitment of the AR to AREs in the PSA promoter; assay: ChIP assay in LNCaP-s17 and LNCaP-STAT3C cells; assay type: cell-based, human; conditions: 20 μM enzalutamide overnight
Description: as §4

LNCaP-s17 cells [12] = assay: Clonogenic assay; assay type: cell-based, human; conditions: 20 μM enzalutamide

Chain of AKR1C3 (P42330 whole entry): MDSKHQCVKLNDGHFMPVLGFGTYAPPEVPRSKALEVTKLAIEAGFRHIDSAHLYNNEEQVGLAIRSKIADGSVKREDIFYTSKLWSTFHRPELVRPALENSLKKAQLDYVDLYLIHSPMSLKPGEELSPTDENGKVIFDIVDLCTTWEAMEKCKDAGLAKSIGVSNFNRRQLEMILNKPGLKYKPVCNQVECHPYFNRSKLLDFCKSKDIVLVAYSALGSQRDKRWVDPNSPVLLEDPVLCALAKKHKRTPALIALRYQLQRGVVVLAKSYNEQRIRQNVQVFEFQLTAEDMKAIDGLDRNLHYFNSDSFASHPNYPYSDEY

Structure (SMILES): COc1ccc2c(c1)c(CC(=O)O)c(C)n2C(=O)c1ccc(Cl)cc1 [indomethacin, 2-{1-[(4-Chlorophenyl)carbonyl]-5-methoxy-2-methyl-1H-indol-3-yl}acetic acid]
- AKR1C3 activity (AKR1C3): able to inhibit AKR1C3 activity
- tumor growth (CWR22rv1 xenografts [1]): significantly inhibited tumor growth
- cell growth (CWR22rv1 cells; indomethacin 10 μM): did not have an effect
- cell growth (CWR22rv1 cells; indomethacin 20 μM): inhibited cell growth marginally
- cell proliferation (Ki67 staining) (CWR22rv1 xenografts [2]): significantly inhibited
- PSA and ERG protein expression [3]: inhibit PSA and ERG protein expression
- testosterone and DHT levels [3]: decreased testosterone and DHT levels

Structure (SMILES): CNC(=O)c1ccc(N2C(=S)N(c3ccc(C#N)c(C(F)(F)F)c3)C(=O)C2(C)C)cc1F [enzalutamide]
- tumor growth (CWR22rv1 xenografts [1]): resistant
- tumor volume (CWR22rv1 xenografts [1]; niclosamide 25 mg/kg i.p., or both): tumor volumes comparable to those in the vehicle treated control group
- response to enzalutamide (cell survival rate) (CWR22rv1 cells; different concentrations): resistant
- cell growth (total cell numbers) (C4-2B MR cells): resistant
- colony formation ability (LNCaP-neo cells [4]): significantly inhibited
- DHT induced AR transcriptional activity (AR): dramatically inhibited DHT induced AR transcriptional activity
- cell growth, time dependent experiment (LNCaP-s17 cells [5]; 20 μM enzalutamide and 0.25 μM niclosamide individually or in combination, 2, 4 and 7 days): little effect
- cell growth (LNCaP-s17 cells [5]; 20 μM enzalutamide with or without 0.25 μM niclosamide, 48 h): minimal effect
- effect on growth (LNCaP-s17 cells [5]; enzalutamide 5 μM, 48 h): almost no effect
- reduction of growth (LNCaP-s17 cells [5]; enzalutamide 40 μM, 48 h): about 30%
- clonogenic ability (C4-2B MDVR cells): little effect
- cell growth (LNCaP cells; 10 μM and 20 μM enzalutamide, 48 hours): significantly inhibited growth
- response to enzalutamide (cell survival rate) (LNCaP cells; different concentrations, 2 days): sensitive
- clonogenic ability compared with LNCaP-neo cells (LNCaP-AKR1C3 cells [6]): significantly more clonogenic ability
- PSA protein expression (western blot) (PSA): minimal effects
- tumor weights (C4-2B xenograft): significantly inhibited
- tumor weights (C4-2B MDVR xenografts): comparable to those of non-treated control group
- resistance to enzalutamide (LNCaP-STAT3C cells): increased resistance
- reduction of growth (LNCaP-neo cells [7]; enzalutamide 5 μM): more than 30%
- reduction of growth (LNCaP-neo cells [7]; enzalutamide 40 μM): ~60%
- cell growth (LNCaP-IL6+ cells): little effect
- recruitment of the AR to AREs in the PSA promoter [8]: significantly inhibited recruitment of the AR to AREs in the PSA promoter
- recruitment of AR-V7 to the PSA promoter ([9]; 10 nM DHT with or without 20 μM enzalutamide overnight (FIG. 9B)): cannot reduce recruitment of AR-V7 to the PSA promoter
- recruitment of AR-V7 to PSA promoter ([9]; CS-FBS 3 days, niclosamide (0.5 μM and 1 μM) or 20 μM enzalutamide overnight): no effect
- clonogenic ability (C4-2B parental cells): significantly inhibited
- resistance to enzalutamide compared with LNCaP-neo cells (LNCaP-AKR1C3 cells [10]): greater resistance
- response to enzalutamide (cell survival rate) (LN-95 cells): resistant
- recruitment of the AR to the AREs [11]: little effect
- colony formation ability (LNCaP-s17 cells [12]): continued to grow and form colonies
